Holding throughout (type): in vivo, mouse
One assay deals with plasma cells. Kind of assay: BrdU short-lived / long-lived plasma cells in spleen and bone marrow of NZM mice. The following applies: 15 week old NZM mice, two weeks. The procedure:
Twenty-four hours before the end of the study each mouse was injected i.p. with 2 mg of thymidine analog, bromodeoxyuridine (BrdU). BrdU (Cat#550891) and an anti-BrdU-FITC staining kit (Cat#559619) were obtained from BD Biosciences (Franklin Lakes, N.J.). Twenty-four hours after BrdU injection spleen and bone marrow were individually processed to isolate leukocytes for flow staining. Cells were surface stained with anti-CD19-Cyc, anti-CD38-PE and anti-CD138-APC (all obtained from eBioscience in San Diego, Calif.) as well as anti-BrdU-FITC (from the BrdU kit). Analysis included gating on live SSC/FSC populations, CD19-negative, CD38-positive and gating on CD138-positive, BrdU-negative (non-cycling, long-lived plasma cells, region R2) or BrdU-positive (cycling, short-lived plasma cells, region R1) as shown in FIG. 42. All samples were analyzed using an Accuri C6 Flow Cytometer. Complete media (R10) was used for all experiments involving the ex vivo culture of splenocytes for all Elispot experiments. […] The Figures depict spleen short-lived plasma cells (FIG. 38), bone marrow isolated short-lived plasma cells (FIG. 39), spleen long-lived plasma cells (FIG. 40), and bone marrow isolated long-lived plasma cells (FIG. 41). Also depicted are representative dot plots providing gating examples and short-lived plasma cells, R1, and long-lived plasma cells, R2, gates (FIG. 42). Graphs show mean±SEM, statistical test included two-tailed, Mann-Whitney t-test, *p<0.05 was considered significant. All events shown were originally size gated on live cells, graphs show CD19-negative, CD38/CD138-double positive populations that had either incorporated BrdU (cycling, thus short-lived plasma cells, see region R1) or not incorporated BrdU (non-cycling, thus long-lived plasma cells, see region R2).

In another assay the test system is IL-12. The experiment in a line: Serum IL-12 (Luminex) in MRL/lpr mice. The procedure: For the processing of serum samples for cytokine analysis, frozen plasma at -80° C. was thawed on ice, vortexed, and centrifuged for 10 minutes to remove debris and aggregates. A total of 25-50 μL of serum was used for Luminex® assays following the manufacturer's instructions. Ten different mouse cytokines were measured using the mouse cytokine 10-plex bead kit (Invitrogen, Carlsbad, Calif., no. LMC0001). Briefly, filter plates (Millipore, Billerica, Mass., no. […]10), were pre-wet with 200 μL of wash solution (kit component) and 25 μL of beads were added per well. Serum samples were diluted and a total volume of 50 μL was added per well (ie, 25 μL of sample serum plus 25 μL of assay diluent as provided by the manufacturer). Plates with beads were incubated for 2 hours at room temperature (RT) on an orbital shaker in the dark. At the end of the incubation, plate(s) were washed twice in kit buffer, secondary biotinylated antibody was added at a 1:10 dilution (100 μL) in biotin diluent provided with the kit. Plates were incubated at RT for 1 hour in the dark then washed twice in kit buffer. Strepavidin in assay diluent was added at 100 μL per well, then incubated for 30 minutes at RT in the dark. The plates were washed 3 times then 100 μL of kit wash solution was added and agitated for 2-3 minutes at RT in the dark. […]

A further assay concerns CCL3/MIP-1α. The experiment in a line: Serum CCL3/MIP-1α in NZM mice. The procedure:
For the processing of serum samples for cytokine analysis, frozen plasma at −80° C. was thawed on ice, vortexed, and centrifuged for 10 minutes to remove debris and aggregates. A total of 25-50 μL of serum was used for Luminex® assays following the manufacturer's instructions. Ten different mouse cytokines were measured using the mouse cytokine 10-plex bead kit (Invitrogen, Carlsbad, Calif., no. LMC0001). Briefly, filter plates (Millipore, Billerica, Mass., no. MAIPSWU10), were pre-wet with 200 μL of wash solution (kit component) and 25 μL of beads were added per well. […]
Age mated, female, NZM or NZW/LacJ, mice were matured for the study of lupus nephritis for a total of 7 months or 210 days at which time urine was collected for proteinuria detection. Mice with 0.5-1.0 mg/ml of urine protein as determined by an optical density-based total protein precipitation assay and cross-checked for 30-300 mg/dl of protein as determined by a stick assay were considered proteinuria positive and selected for study entry. […] End-stage lupus nephritis was evaluated by histopathology and scored by a board certified pathologist for the assessment of total renal damage in diseased animals using the scoring method described by Smith et al (Smith, Dong et al. 2007). […]

Turning to `CN1CCN(c2cccc(Nc3nc4c(-c5ccc(S(C)(=O)=O)cc5)cccn4n3)c2)CC1` [COMPOUND A, [8-(4-methanesulfonyl-phenyl)-[1,2,4]triazolo[1,5-a]pyridin-2-yl]-[3-(4-methyl-piperazin-1-yl)-phenyl]-amine], the “short lived plasma cells in the bone marrow” value with plasma cells (100 mg/kg orally b.i.d., FIG. 39) was “impacted”. Also, the “long lived plasma cells in the bone marrow” value with plasma cells (100 mg/kg orally b.i.d., FIG. 41) is “impacted”. Moreover, the “long lived plasma cells in the spleen” value in the assay on plasma cells (all three doses (100, 55, 30 mg/kg) orally b.i.d., FIG. 40) was “impacted”. In addition, the “serum IL-12 decrease compared to vehicle” value is listed as 50.7% in the assay on IL-12 (55 mg/kg p.o. b.i.d.) and 56.1% with IL-12 (100 mg/kg p.o. b.i.d.). Moreover, the “serum CCL3/MIP-1α decrease compared to vehicle” value with CCL3/MIP-1α (55 mg/kg) and with CCL3/MIP-1α (100 mg/kg) was 94.5% in each case.

Values taken from patent US9023853B2, “Janus kinase 2 (JAK2) inhibitor for the treatment of lupus” (Cephalon, Inc., priority 2010, dated 2015).
